In ChEMBL document CHEMBL5705899 (Biochem J, 2014):
The source made the active and inactive calls. No cut-off for these calls is given here.

Tests used:
[1] = target: Serine/threonine-protein kinase MARK2 (Homo sapiens) (UniProt Q7KZI7); assay: Inhibition of human MARK2 at 1 uM using RBER-CHKtide as substrate in presence of 33P-ATP by ProQinase assay
[2] = target: Ribosomal protein S6 kinase alpha-1 (Homo sapiens) (UniProt Q15418); assay: Inhibition of recombinant human N-terminal His6-tagged RSK1 (1 to 735 residues) expressed in baculovirus infected Sf21 cells assessed as remaining activity at 1 uM using KKLNRTLSVA as substrate incubated for 30 mins in presence of [gamma-33P]ATP by filter binding method relative to control
[3] = target: Phosphatidylinositol 4,5-bisphosphate 3-kinase catalytic subunit delta isoform (Homo sapiens) (UniProt O00329); assay: Inhibition of p100delta (unknown origin) at 1 uM
[4] = target: Casein kinase I isoform gamma-2 (Homo sapiens) (UniProt P78368); assay: Inhibition of recombinant human N-terminal GST-tagged CK1g2 (1 to 415 residues) expressed in Escherichia coli assessed as remaining activity at 1 uM using RRKDLHDDEEDEAMSITA as substrate incubated for 30 mins in presence of [gamma-33P]ATP by filter binding method relative to control
[5] = target: cGMP-dependent protein kinase 1 (Homo sapiens) (UniProt Q13976); assay: Inhibition of human PRKG1 at 1 uM using 3xChocktide-PKC as substrate in presence of 33P-ATP by ProQinase assay
[6] = target: PI3-kinase p110-delta/p85-alpha (Homo sapiens, UniProt O00329); assay: Inhibition of human PIK3CD/PIK3R1 using PIP2/PS as substrate by ADP-Glo assay; type: protein-complex assay
[7] = target: Cyclin-dependent kinase 4/cyclin D1 (Homo sapiens) (UniProt P11802+P24385); assay: Inhibition of human CDK4/CyclinD1 at 1 uM using RBER-CHKtide, as substrate in presence of 33P-ATP by ProQinase assay; type: protein-complex assay
[8] = target: Activin receptor type-2A (Homo sapiens) (UniProt P27037); assay: Inhibition of human ACVR2A at 1 uM using casein as substrate in presence of 33P-ATP by ProQinase assay
[9] = target: Inhibitor of nuclear factor kappa-B kinase subunit epsilon (Homo sapiens) (UniProt Q14164); assay: (§1) Inhibition of recombinant human N-terminal GST-tagged IKKepsilon (1 to 716 residues) expressed in baculovirus infected Sf21 cells assessed as remaining activity at 1 uM using MBP as substrate incubated for 30 mins in presence of [gamma-33P]ATP by filter binding method relative to control
[10] = target: Casein kinase I isoform delta (Homo sapiens) (UniProt P48730); assay: Inhibition of recombinant human N-terminal GST-tagged CK1delta (1 to 415 residues) expressed in Escherichia coli assessed as remaining activity at 1 uM using RRKDLHDDEEDEAMSITA as substrate incubated for 30 mins in presence of [gamma-33P]ATP by filter binding method relative to control
[11] = target: Diacylglycerol kinase beta (Homo sapiens) (UniProt Q9Y6T7); assay: Inhibition of DGKbeta (unknown origin) at 1 uM
[12] = target: Dual specificity testis-specific protein kinase 1 (Homo sapiens) (UniProt Q15569); assay: Inhibition of recombinant human N-terminal GST-tagged TESK1 (1 to 315 residues) expressed in Escherichia coli assessed as remaining activity at 1 uM using Cofilin 2 as substrate incubated for 30 mins in presence of [gamma-33P]ATP by filter binding method relative to control
[13] = target: Ribosomal protein S6 kinase alpha-3 (Homo sapiens) (UniProt P51812); assay: (§2) Inhibition of recombinant human N-terminal His6-tagged RSK2 (2 to 740 residues) expressed in baculovirus infected Sf21 cells assessed as remaining activity at 1 uM using KKLNRTLSVA as substrate incubated for 30 mins in presence of [gamma-33P]ATP by filter binding method relative to control
[14] = target: Mitogen-activated protein kinase 7 (Homo sapiens) (UniProt Q13164); assay: Inhibition of recombinant human N-terminal His6-tagged ERK5 (1 to 816 residues) expressed in baculovirus infected Sf21 cells assessed as remaining activity at 1 uM using MBP as substrate incubated for 30 mins in presence of [gamma-33P]ATP by filter binding method relative to control
[15] = target: Serine/threonine-protein kinase Nek6 (Homo sapiens) (UniProt Q9HC98); assay: Inhibition of recombinant human His6-tagged NEK6 (8 to 313 residues) expressed in baculovirus infected Sf21 cells assessed as remaining activity at 1 uM using FLAKSFGSPNRAYKK as substrate incubated for 30 mins in presence of [gamma-33P]ATP by filter binding method relative to control
[16] = target: Mitogen-activated protein kinase kinase kinase 10 (Homo sapiens) (UniProt Q02779); assay: Inhibition of human MAP3K10 at 1 uM using histon H2B as substrate in presence of 33P-ATP by ProQinase assay
[17] = target: Serine/threonine-protein kinase PAK 1 (Homo sapiens) (UniProt Q13153); assay: Inhibition of human PAK1 at 1 uM using RBER-CHKtide as substrate in presence of 33P-ATP by ProQinase assay
[18] = target: Serine/threonine-protein kinase PAK 4 (Homo sapiens) (UniProt O96013); assay: Inhibition of human PAK4 at 1 uM using bio-4xCHKT as substrate in presence of 33P-ATP by ProQinase assay
[19] = target: Misshapen-like kinase 1 (Homo sapiens) (UniProt Q8N4C8); assay: Inhibition of recombinant human N-terminal GST-tagged MINK1 (1 to 320 residues) expressed in baculovirus infected Sf21 cells assessed as remaining activity at 1 uM using MBP as substrate incubated for 30 mins in presence of [gamma-33P]ATP by filter binding method relative to control
[20] = target: Ephrin type-B receptor 3 (Homo sapiens) (UniProt P54753); assay: Inhibition of human EPHB3 at 1 uM using polyEY as substrate in presence of 33P-ATP by ProQinase assay
[21] = target: SRSF protein kinase 3 (Homo sapiens) (UniProt Q9UPE1); assay: Inhibition of human STK23 at 1 uM using RBER-CHKtide as substrate in presence of 33P-ATP by ProQinase assay
[22] = target: Serine/threonine-protein kinase SIK2 (Homo sapiens) (UniProt Q9H0K1); assay: as §2, with “GST and HA-tagged SIK2” for “His6-tagged RSK2”, “926” for “740”, “ALNRTSSDSALHRRR” for “KKLNRTLSVA”
[23] = target: MAP kinase-interacting serine/threonine-protein kinase 1 (Homo sapiens) (UniProt Q9BUB5); assay: Inhibition of human MKNK1 at 1 uM using RB-S6P as substrate in presence of 33P-ATP by ProQinase assay
[24] = target: Serine/threonine-protein kinase TBK1 (Homo sapiens) (UniProt Q9UHD2); assay: as §1, with “TBK1” for “IKKepsilon”, “729” for “716”, “KKKKERLLDDRHDSGLDSMKDEE” for “MBP”

Sequence of cGMP-dependent protein kinase 1 (Homo sapiens) (Q13976 whole entry): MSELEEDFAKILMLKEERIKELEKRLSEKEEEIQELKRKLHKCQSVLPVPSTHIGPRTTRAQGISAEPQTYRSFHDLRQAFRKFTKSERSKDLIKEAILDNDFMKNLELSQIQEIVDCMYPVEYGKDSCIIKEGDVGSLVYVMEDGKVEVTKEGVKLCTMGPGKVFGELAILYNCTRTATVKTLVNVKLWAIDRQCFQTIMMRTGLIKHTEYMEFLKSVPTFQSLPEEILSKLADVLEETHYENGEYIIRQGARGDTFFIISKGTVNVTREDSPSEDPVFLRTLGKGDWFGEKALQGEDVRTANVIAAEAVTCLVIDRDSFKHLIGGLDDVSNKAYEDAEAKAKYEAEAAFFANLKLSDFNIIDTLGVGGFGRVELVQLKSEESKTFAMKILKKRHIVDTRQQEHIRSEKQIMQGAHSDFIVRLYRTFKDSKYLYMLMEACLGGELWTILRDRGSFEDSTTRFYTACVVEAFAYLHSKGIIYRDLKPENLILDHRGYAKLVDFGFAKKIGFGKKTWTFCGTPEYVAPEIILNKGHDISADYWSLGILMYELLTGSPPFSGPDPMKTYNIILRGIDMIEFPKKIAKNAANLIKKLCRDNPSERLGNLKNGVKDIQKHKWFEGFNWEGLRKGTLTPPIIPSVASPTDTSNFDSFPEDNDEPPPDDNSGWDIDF
Sequence of Serine/threonine-protein kinase PAK 4 (Homo sapiens) (O96013 whole entry, looked up, the tested form may be a part): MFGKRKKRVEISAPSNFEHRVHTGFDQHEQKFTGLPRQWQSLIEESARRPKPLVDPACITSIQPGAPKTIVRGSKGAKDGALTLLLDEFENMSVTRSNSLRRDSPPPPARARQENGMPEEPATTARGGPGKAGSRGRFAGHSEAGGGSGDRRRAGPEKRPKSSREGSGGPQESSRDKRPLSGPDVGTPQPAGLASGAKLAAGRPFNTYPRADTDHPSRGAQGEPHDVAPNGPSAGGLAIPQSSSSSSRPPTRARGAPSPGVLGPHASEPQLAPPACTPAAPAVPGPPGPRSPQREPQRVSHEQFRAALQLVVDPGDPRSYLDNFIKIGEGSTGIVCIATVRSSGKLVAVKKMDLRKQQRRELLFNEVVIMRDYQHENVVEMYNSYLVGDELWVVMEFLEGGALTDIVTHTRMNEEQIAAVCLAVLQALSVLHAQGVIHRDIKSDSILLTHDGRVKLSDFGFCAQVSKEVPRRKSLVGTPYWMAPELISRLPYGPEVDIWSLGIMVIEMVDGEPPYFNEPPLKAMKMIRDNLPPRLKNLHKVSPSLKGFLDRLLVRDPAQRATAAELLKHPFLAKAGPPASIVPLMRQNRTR
Sequence of Mitogen-activated protein kinase kinase kinase 10 (Homo sapiens) (Q02779 whole entry, looked up): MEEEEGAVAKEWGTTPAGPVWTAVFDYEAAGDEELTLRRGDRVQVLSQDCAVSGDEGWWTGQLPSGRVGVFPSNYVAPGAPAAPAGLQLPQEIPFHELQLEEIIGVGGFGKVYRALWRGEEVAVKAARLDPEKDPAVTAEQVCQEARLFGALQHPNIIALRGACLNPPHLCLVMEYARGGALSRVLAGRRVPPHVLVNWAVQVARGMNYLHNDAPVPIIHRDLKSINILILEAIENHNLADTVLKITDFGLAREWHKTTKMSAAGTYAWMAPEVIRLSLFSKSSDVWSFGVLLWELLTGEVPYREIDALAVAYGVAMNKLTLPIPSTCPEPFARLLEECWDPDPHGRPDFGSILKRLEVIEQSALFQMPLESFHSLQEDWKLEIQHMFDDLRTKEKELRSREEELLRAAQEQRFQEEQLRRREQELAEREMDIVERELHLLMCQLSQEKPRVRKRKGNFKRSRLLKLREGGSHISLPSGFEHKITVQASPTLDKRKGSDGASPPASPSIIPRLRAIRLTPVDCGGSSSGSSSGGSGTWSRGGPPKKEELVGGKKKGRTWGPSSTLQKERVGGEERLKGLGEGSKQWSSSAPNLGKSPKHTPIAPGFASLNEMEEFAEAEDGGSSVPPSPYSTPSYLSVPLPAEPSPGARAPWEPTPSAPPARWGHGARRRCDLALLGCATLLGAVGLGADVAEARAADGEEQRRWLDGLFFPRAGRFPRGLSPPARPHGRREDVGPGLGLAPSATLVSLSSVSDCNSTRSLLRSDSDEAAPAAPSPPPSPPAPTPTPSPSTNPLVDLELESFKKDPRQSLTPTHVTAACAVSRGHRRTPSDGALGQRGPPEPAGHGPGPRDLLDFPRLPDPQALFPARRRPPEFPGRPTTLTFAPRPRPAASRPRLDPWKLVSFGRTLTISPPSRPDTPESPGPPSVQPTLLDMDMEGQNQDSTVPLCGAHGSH
Sequence of Ephrin type-B receptor 3 (Homo sapiens) (P54753 whole entry): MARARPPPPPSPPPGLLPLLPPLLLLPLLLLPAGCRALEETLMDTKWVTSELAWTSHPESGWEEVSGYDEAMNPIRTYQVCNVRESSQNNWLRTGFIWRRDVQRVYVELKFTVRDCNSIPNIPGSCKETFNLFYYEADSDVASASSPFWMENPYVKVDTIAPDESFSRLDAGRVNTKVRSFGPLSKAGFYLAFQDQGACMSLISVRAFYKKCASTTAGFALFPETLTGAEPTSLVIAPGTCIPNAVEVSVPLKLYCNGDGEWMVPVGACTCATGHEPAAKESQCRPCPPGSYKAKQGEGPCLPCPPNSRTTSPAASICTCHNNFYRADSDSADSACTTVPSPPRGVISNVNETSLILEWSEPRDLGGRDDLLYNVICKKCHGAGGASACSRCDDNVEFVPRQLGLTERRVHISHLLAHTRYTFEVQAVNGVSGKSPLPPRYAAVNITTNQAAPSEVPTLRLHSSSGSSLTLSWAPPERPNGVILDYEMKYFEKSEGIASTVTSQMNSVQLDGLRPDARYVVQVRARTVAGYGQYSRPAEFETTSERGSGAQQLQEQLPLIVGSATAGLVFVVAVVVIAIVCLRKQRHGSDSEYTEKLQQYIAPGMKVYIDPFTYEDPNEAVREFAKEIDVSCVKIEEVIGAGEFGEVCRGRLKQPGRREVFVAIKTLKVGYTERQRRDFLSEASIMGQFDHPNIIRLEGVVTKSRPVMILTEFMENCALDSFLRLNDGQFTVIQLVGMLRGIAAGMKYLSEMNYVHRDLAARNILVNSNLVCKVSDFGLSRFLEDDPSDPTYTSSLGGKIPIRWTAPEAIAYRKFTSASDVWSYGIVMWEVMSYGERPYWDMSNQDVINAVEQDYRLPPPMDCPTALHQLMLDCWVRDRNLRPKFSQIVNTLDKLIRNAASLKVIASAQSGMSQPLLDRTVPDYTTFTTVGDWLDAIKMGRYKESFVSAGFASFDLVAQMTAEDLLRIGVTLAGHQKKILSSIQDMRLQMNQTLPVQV
Sequence of Inhibitor of nuclear factor kappa-B kinase subunit epsilon (Homo sapiens) (Q14164 whole entry, the tested form may be a part, canonical isoform): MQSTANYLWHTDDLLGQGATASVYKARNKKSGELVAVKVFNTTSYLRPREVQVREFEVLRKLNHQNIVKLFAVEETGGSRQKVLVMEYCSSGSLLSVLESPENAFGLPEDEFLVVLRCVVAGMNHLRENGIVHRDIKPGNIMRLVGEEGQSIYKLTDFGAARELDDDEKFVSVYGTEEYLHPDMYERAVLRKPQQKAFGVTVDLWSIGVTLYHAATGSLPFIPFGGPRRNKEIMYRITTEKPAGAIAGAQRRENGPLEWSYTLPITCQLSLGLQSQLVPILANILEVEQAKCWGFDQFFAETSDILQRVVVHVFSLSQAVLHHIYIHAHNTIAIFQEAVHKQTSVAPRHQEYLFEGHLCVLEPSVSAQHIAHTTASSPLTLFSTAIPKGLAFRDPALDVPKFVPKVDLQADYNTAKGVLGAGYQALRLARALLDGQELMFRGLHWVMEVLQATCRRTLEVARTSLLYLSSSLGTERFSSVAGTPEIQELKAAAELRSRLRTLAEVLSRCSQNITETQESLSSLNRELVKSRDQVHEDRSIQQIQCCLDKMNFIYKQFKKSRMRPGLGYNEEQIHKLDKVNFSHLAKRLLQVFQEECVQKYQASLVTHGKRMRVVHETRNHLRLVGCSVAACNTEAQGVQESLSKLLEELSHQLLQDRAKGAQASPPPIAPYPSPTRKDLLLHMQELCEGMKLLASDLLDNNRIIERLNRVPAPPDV
Sequence of SRSF protein kinase 3 (Homo sapiens) (Q9UPE1 whole entry): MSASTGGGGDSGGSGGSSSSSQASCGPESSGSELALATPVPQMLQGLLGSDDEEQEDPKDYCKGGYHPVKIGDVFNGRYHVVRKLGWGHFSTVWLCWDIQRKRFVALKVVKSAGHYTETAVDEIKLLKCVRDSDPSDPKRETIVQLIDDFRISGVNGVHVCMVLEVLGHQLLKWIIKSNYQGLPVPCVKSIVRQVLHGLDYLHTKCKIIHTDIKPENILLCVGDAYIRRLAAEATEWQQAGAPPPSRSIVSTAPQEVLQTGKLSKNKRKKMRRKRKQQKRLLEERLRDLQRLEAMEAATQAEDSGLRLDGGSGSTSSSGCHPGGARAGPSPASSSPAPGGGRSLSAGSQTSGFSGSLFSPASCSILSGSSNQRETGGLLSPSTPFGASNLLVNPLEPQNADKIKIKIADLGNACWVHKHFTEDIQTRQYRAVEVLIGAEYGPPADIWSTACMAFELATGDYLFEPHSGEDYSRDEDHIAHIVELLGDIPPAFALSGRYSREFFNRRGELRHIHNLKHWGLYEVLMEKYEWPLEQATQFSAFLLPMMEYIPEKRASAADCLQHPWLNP
Sequence of Serine/threonine-protein kinase Nek6 (Homo sapiens) (Q9HC98 whole entry, the tested form may be a part): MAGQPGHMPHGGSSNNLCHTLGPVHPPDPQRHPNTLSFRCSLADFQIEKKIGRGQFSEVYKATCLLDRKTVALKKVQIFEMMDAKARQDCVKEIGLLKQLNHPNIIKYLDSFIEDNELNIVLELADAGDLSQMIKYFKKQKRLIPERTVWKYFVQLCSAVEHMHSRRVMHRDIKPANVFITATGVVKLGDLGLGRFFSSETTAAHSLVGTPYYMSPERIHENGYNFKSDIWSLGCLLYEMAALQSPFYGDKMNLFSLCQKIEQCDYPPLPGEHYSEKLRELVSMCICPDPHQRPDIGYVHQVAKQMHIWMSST

CC(C)(O)CNc1ncc(-c2ccnc(Nc3ccnc(Cl)c3)n2)c(CC2CC2)n1
inhibition [1]: inactive | Activity [2]: 99% | inhibition [3]: inactive | Activity [4]: 122% | inhibition [5]: inactive | IC50 [6]: > 10 µM | inhibition [7]: inactive | inhibition [8]: inactive | Activity [9]: 103% | Activity [10]: 105% | inhibition [11]: inactive | Activity [12]: 95% | Activity [13]: 103% | Activity [14]: 104% | Activity [15]: 98% | inhibition [16]: inactive | inhibition [17]: inactive | inhibition [18]: inactive | Activity [19]: 103% | inhibition [20]: inactive | inhibition [21]: inactive | Activity [22]: 106% | inhibition [23]: inactive | Activity [24]: 125%
